# Measured values from PMC3515623, “WIKI4, a Novel Inhibitor of Tankyrase and Wnt/ß-Catenin Signaling” (PLoS ONE, 2012).
# Biological target: T1, TNKS2 (Homo sapiens, UniProt Q9H2K2)
# T1 construct: Recombinant GST-TNKS2
# T1 sequence (Q9H2K2 1-1166): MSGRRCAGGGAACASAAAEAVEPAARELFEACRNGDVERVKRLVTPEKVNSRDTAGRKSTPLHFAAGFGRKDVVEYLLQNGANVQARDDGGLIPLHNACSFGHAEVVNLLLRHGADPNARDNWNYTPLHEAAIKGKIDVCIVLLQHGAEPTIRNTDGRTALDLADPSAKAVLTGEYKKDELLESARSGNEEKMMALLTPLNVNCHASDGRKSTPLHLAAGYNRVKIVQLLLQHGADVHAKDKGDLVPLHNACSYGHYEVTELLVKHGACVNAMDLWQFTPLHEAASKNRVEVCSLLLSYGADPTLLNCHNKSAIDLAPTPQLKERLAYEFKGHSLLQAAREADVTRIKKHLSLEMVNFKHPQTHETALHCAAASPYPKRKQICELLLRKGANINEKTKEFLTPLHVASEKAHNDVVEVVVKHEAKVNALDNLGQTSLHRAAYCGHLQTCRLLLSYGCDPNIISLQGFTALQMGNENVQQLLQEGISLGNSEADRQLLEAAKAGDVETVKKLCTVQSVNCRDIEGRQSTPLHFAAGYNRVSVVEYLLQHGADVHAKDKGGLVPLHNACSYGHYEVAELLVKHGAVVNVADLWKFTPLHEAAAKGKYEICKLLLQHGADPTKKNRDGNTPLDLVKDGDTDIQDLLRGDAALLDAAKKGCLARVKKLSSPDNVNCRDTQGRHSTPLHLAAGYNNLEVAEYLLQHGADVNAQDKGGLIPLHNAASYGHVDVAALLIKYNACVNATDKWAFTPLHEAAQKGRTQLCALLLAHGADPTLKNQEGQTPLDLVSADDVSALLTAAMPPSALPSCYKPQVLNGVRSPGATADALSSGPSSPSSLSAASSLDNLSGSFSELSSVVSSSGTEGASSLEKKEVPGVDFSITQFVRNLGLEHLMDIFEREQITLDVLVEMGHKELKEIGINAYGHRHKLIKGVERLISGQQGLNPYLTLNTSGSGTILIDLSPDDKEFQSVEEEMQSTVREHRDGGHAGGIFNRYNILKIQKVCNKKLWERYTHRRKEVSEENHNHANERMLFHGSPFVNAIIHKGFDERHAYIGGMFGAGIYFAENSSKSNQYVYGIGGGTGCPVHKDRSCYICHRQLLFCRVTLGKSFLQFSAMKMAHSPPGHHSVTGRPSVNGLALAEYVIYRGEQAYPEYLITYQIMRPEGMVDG
# Experiment: in vitro auto-ADP-ribosylation assay with recombinant GST-TNKS2, biotinylated substrate, chemiluminescent detection
# Type: biochemical
smiles,measurement,value
COc1ccc(-n2c(SCCCN3C(=O)c4cccc5cccc(c45)C3=O)nnc2-c2ccncc2)cc1 [WIKI4],IC50,~0.015 µM
